Row | melting point | SMILES
1 | 86 to 87 °C | COC(=O)C=Cc1ccc(CO)cc1
2 | 124 to 133 °C | CCCNC(=O)CCCCOc1ccc2c(c1)CCCN2C1CC(C)N(C(=O)c2cc(OC)c(OC)c(OC)c2)c2ccccc21 (stereo not given)
3 | 169 to 170 °C | COC(=O)c1sc2cccc(C#N)c2c1N
4 | 95 to 95.5 °C | Cc1c(CCC2C(=O)OCCC2OC2CCCCO2)c2c(c(C)c1OCc1ccccc1)CCC(C)(C)O2 (stereo not given)
5 | 229 to 231 °C | CC(C)n1c(=O)nc(-c2ccc3c(c2)OCO3)c2cc3c(cc21)OCCO3
6 | 127 to 128 °C | Cc1cccc(CN2CCc3ccc(C(=O)CCC(=O)N4CCC(c5ccc(Cl)cc5)CC4)cc3CC2)c1
7 | 147 °C | N#Cc1ccc(N(c2ccc(N)cc2)n2ccnc2)cc1
8 | 151 °C | COc1cc(-c2csc(C3CC3)n2)cc2oc(=O)c(C)c(C)c12
9 | 193 to 195 °C | COc1ccc(-c2ccc3c(c2)c2ccc(C=Cc4ccccc4)nc2n3S(=O)(=O)c2ccccc2)cc1
10 | 213 to 215 °C | COc1cccc(CNC(=O)c2cc3c(=O)n(Cc4ccc([N+](=O)[O-])nc4)c(=O)n(C)c3s2)c1
11 | 249 to 251 °C | COC(=O)Nc1cn2c(S(=O)c3ccccc3)cccc2n1 (stereo not given)
12 | 215 to 217 °C | O=C(O)c1ccccc1Nc1ccc(CCc2ccc(O)c(O)c2)cc1
13 | 120 °C | CCCCCCCCOc1cccc2c1OCO2
14 | 88 to 90 °C | O=c1c(-c2cccc(C(F)(F)F)c2)c(Cl)cnn1-c1ccc(F)cc1
15 | 180 to 184 °C | NC(=O)Cc1ccc(OCCc2coc(-c3ccccc3)n2)cc1
16 | > 300 °C | Cc1nc(NC(=O)Nc2ccc(F)cc2)sc1C(=O)NCc1ccccc1
17 | 159 to 160 °C | CC(=O)OC1CCC2(C)C(=CCC3C2CCC2(C)C(n4cnc5ccccc54)=CCC32)C1 (stereo not given)
18 | 90 to 91 °C | C=Cc1ccc2nnn(OS(=O)(=O)c3ccc(C)cc3)c2c1
19 | 204 to 207 °C | O=[N+]([O-])c1ccccc1-c1ccc2c(c1)S(=O)(=O)NC(C1CCCCC1)N2 (stereo not given)
20 | 141 to 143 °C | COc1cc2c(c(OC)c1OC)C(CN1CCC(c3noc4cc(F)ccc34)CC1)=C2
21 | 98 to 99 °C | CCOc1ccc(NCc2ccc(N(C)C)cc2)cc1
22 | 128 to 131 °C | NNCC1(O)c2ccccc2C=Cc2ccccc21
23 | 117 to 120 °C | COc1ccc(N2CCN(c3c(C)c(C)c4c(c3C)CC(C)(Cn3cccn3)O4)CC2)cc1 (stereo not given)
24 | 200 to 201 °C | COC(=O)Cc1ccc(-c2cc(O)c3ccccc3c2O)n1C

Row | melting point | SMILES
25 | 160 °C | CCC(=O)N1CCN(C(=O)COC2c3ccccc3C(=O)N2c2ccc3ccc(OC)nc3n2)CC1 (stereo not given)
26 | 175 °C | Nc1ccc2ccc(-c3ccc(F)cc3)nc2n1
27 | 233 to 234 °C | O=C1Nc2ccccc2Oc2c1[nH]c1ccccc21
28 | 178 to 179 °C | CCCn1c(COCC)nc2c(N)nc3ccc(OCC4CCCO4)cc3c21 (stereo not given)
29 | 198 to 199 °C | CCC(CC)CNC(=O)c1ccc2cccc(Cc3ccc(C(=O)O)cc3OC)c2c1
30 | 108 to 110 °C | CCOC(=O)c1cccn2cc(C(F)(F)F)nc12
31 | 141 to 142 °C | CN(C)c1nc(N)c2ccccc2n1
32 | 285 to 288 °C | NC(/C=C(/F)P(=O)(O)O)CCc1ccc(Sc2cccc(OCc3ccccc3)c2)cc1Cl (stereo not given)
33 | 270 to 274 °C | O=C(Nc1ccc2cc(CN3CCCC3)ccc2c1)c1ccc(-c2ccc(Cl)cc2)nc1
34 | 200 to 203 °C | Nn1c(-c2ccccc2)nc2cc(C(F)(F)F)ccc21
35 | 143 to 145 °C | COc1cccc2c1nc(C)c1ccn(-c3ccccc3C)c12
36 | 146 to 147 °C | Cc1c(CNCC2CCOCC2)[nH]c2ccc(NC(=O)c3ccc(OC[C@@H]4CCCO4)cc3)cc12
37 | 118 to 120 °C | O=C(C1=C(O)CCS1)c1nnn(Cc2ccccc2)c1Cl
38 | 45 to 48 °C | Cc1sc(CO)c(C)c1C
39 | 173 to 176 °C | CNc1nc(N2CCN(C)CC2)nc2ccc(Cl)cc12
40 | 159 to 160 °C | CCOC(=O)CCN1CCN2c3ccccc3Cc3ccccc3C2C1 (stereo not given)
41 | > 280 °C | CC(C)Cc1c2c(nn1C)c(O)nc1ccccc12
42 | 99 to 101 °C | CC(=O)N1CCC(c2nn(-c3ccc(F)cc3)c3ccccc23)CC1
43 | 110 °C | CC(Oc1ccc([N+](=O)[O-])cc1F)c1c(Cl)ccc(F)c1Cl (stereo not given)
44 | 79 to 80 °C | COc1ccccc1N1CCN(CCCNc2ccc(F)cc2)CC1
45 | 128 to 130 °C | COc1ccc2c(c1)CCC(=COC(=O)c1ccccc1)C2=O
46 | 62 to 64 °C | CCCCc1ncc(C=O)n1Cc1ccc(C(=O)OC)cc1
47 | 173 to 175 °C | Fc1ccc(Nc2ncnc3cnc(NCCN4CCNCC4)nc23)cc1Cl
48 | 132 °C | CNC(=O)c1cc(Br)cc(-c2ccccc2)c1

Row | melting point | SMILES
49 | 82 to 90 °C | CON=C(C#N)c1ccccc1S(N)(=O)=O
50 | 167 to 168 °C | CSc1cccc(-c2ccccc2)c1S(N)(=O)=O
51 | 91 to 96 °C | Cc1c(C)c2c(c(C)c1OCc1ccccc1)CCC(C)(CC(=O)O)O2 (stereo not given)
52 | 271 to 274 °C | CCc1cc(=O)c2c([nH]1)CCCN2C(=O)C(F)(F)F
53 | 220 to 221 °C | CSc1ccc(-c2cc(-c3nc4ccccc4c(=O)n3-c3cccc(C)c3)sc2N2CCOCC2)cc1
54 | 81 to 83 °C | CS(=O)(=O)OCCN1c2ccccc2Oc2ccccc21
55 | 302 to 307 °C | COc1cc2ncc(C#N)c(Nc3ccc(Sc4nccn4C)c(Cl)c3)c2cc1OC
56 | 152 °C | CC(=O)OC1CSC(Oc2cccc(-c3cc(Cl)ccn3)c2)C(OC(C)=O)C1OC(C)=O (stereo not given)
57 | 116 to 117 °C | CCOC(=O)c1ccccc1-n1cnc2c(C)c(C(=O)OCC)c(C)cc2c1=O
58 | 78 to 80 °C | COC(=O)C1Oc2ccc3c(-c4ccccc4)noc3c2O1 (stereo not given)
59 | 206 to 208 °C | O=C(O)C1=Cc2cc(Br)cc(F)c2OC1C(F)(F)F (stereo not given)
60 | 215 °C | CCc1c(C(=O)O)nn(-c2ccc(Cl)cc2Cl)c1-c1ccc(Cl)cc1
61 | 245 °C | COc1nc(C)nc(NNC(N)=NS(=O)(=O)c2ccccc2OC(F)(F)F)n1
62 | 177 °C | CC(=O)Nc1nc(S(=O)(=O)Cl)n[nH]1
63 | 103 to 105 °C | Cc1cc(N)cnc1CCCC#N
64 | 213 to 215 °C | COc1ccc(-n2ncc(C(N)=O)c2N)cc1
65 | > 260 °C | O=S(=O)(O)c1ccc2c(c1)CNC(C(Cl)(Cl)Cl)O2 (stereo not given)
66 | 54 to 55.5 °C | CCOC(=O)CC1CCc2c(oc3ccc(Cl)cc23)C1 (stereo not given)
67 | 146 to 148 °C | CN(CCOc1ccc(CC(F)C(=O)O)cc1)c1nc2ccccc2o1 (stereo not given)
68 | 57 to 58 °C | OCc1ccc(-c2ccc(OC(F)(F)F)cc2)nc1
69 | 203 to 205 °C | CS(=O)(=O)c1ccc(-n2nc(C(F)(F)F)cc2-c2ccc(-c3cscn3)cc2)cc1CO
70 | 53 to 55 °C | COc1ccc(C)c([N+](=O)[O-])c1C
71 | 148 to 149 °C | CN1C(=O)Cc2cscc2S1(=O)=O
72 | 138 to 140 °C | O=[N+]([O-])c1ccc(C2OCc3ccc(CCl)cc3CO2)cc1 (stereo not given)

Row | melting point | SMILES
73 | 168 to 171 °C | Cn1cc(-c2ccccc2)c(=S)c(-c2ccccc2)c1
74 | 177 to 179 °C | CC1=NC(NC(=O)Nc2cccc(C)c2)C(=O)N(CC(=O)N2CC3CCC(CC3)C2)c2c(C)cccc21 (stereo not given)
75 | 229 °C | COc1cc(Cc2cnc(N)nc2N)c2c(c1OC)OC(C1CC1)C=C2 (stereo not given)
76 | 237 to 238 °C | O=C1CC(C(=O)NC(Cc2ccc(C(F)(F)F)cc2)C(O)c2ccc(F)cc2)c2ccccc21 (racemic)
77 | 194 to 196 °C | CCN1C(=O)CCCc2cc(Nc3ncc(Cl)c(Nc4cc(Cl)ccc4OC)n3)c(OC)cc21
78 | 170 to 172 °C | COc1cccc2c(=O)c3cc(F)ccc3oc12
79 | 207 to 208 °C | N#CCCNC(=O)c1cccc(-c2cccc3nn(Cc4cc(F)cc(Cl)c4)cc23)c1
80 | 241 to 242 °C | Nc1c(-c2ccc(Br)cc2)nc2ccc(Cl)cc2c1C(=O)O
81 | 78 to 81 °C | O=C1Cc2cc(NC(=O)C(=O)N3CCC(Oc4ccccc4)CC3)ccc2N1
82 | 137 °C | O=CNNC(C(=O)O)c1ccccc1 (stereo not given)
83 | 142 to 144 °C | CS(=O)(=O)c1ccc(-c2cc(C(=O)CCCO[N+](=O)[O-])nn2-c2ccccc2)cc1
84 | 148 to 152 °C | COCCN1CCC(c2nc3cc(-c4ccc(-n5cnnn5)cc4F)ccc3o2)CC1
85 | 218 to 220 °C | CCOc1nc(C)c(N2CCCn3c2nc2c(Cl)ccc(C(OC(F)F)C(F)(F)F)c23)c(C)n1 (stereo not given)
86 | 236 to 243 °C | COc1cc(/C=C/c2cc(/C=C/c3ccc4cc[nH]c4c3)n[nH]2)ccc1OCc1ccccn1
87 | 215 to 217 °C | O=C1CC(N2C=Nc3cc(Cl)cc(Cl)c3C2)C(=O)N1 (stereo not given)
88 | 100 to 102 °C | Cc1cccc(-c2[nH]c(C(C)C)nc2-c2ccc(F)c(-c3ccc(S(C)=O)nc3)c2)n1 (stereo not given)
89 | 156 °C | Fc1ccc(Cn2c(NC3CCN(CCOc4nccs4)CC3)nc3ccccc32)cc1
90 | 207 to 209 °C | c1ccc(CNc2nc3cc(-c4ccccc4)nnc3c3ccccc23)cc1
91 | 265 to 267 °C | CNc1nc(Nc2ccc(Cl)c(Cl)c2)ncc1NC(=O)c1ccccc1
92 | 260 °C | O=c1[nH]c2cc(Cl)ccc2c(O)c1-c1cccc(S(=O)(=O)c2ccccc2)c1
93 | 283 °C | Cc1cccc(-c2sc(N)nc2-c2ccnc(-c3ccc(C(=O)NC4CCOCC4)cc3)c2)n1
94 | 125 to 127 °C | Nc1ccc2oc([N+](=O)[O-])c(-c3ccccc3)c2c1
95 | 218 to 219 °C | Cc1c(C)c2c(c(C)c1NC(=O)CC(C)(C)C)C(c1ccc(-c3ccccc3)cc1)CO2 (stereo not given)
96 | 88 to 90 °C | CCOC(=O)c1cnn2c1c(OCC)nc1ccccc12

Row | SMILES | melting point
97 | COc1cc2c(cc1Br)C=C(C)N(C(=O)C1CC1)N=C2c1ccc(N)cc1 | 224 to 226 °C
98 | N#Cc1c(F)c(F)c(CO)c(F)c1F | 50 °C
99 | NC(=NO)c1ncn2c1[C@@H]1CCCN1C(=O)c1c(Br)cccc1-2 | 235 to 237 °C
100 | CCCCn1cc(CCN(C)C)c2c(OCc3ccccc3)cc(F)cc21 | 86 to 89 °C

Reference: a melting point compilation (Tetko et al.; mined from patent text by program, amines drawn as free bases though some values may be those of a salt)
